The values that follow come from PubChem BioAssay (NCI).

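Values below derive from 48-hour exposures of cells grown in 96-well plates, with endpoints linearly interpolated between the two concentrations bracketing the appropriate inhibition level. Abbreviation: GI50, concentration required for 50% inhibition of growth. TGI marks complete inhibition of growth.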

Test systems include SK-MEL-5 melanoma; HCT-15 colon; CCRF-CEM leukemia; A498 renal; NCI-H460 lung; SK-MEL-28 melanoma; UACC-257 melanoma; UO-31 renal; COLO 205 colon; TK-10 renal.
What all share (assay): NCI-60 cell line screen, 48 h

Consider `CC12CCC(CC1)C(C)(C)O2`, for which the TGI in the assay on SK-MEL-5 melanoma was determined as 21.8 µM; in the assay with HCT-15 colon, 71.8 µM; in the assay on CCRF-CEM leukemia it was 201 µM; with A498 renal, 99.6 µM; in the assay on NCI-H460 lung, 12.3 µM; in the assay with SK-MEL-28 melanoma, 131 µM. In addition, the TGI came out at 73.7 µM with UACC-257 melanoma, 78.3 µM in the assay on UO-31 renal and 99.6 µM in the assay on COLO 205 colon. Further, the GI50 with CCRF-CEM leukemia is 35.8 µM; with NCI-H460 lung, 1.24 µM.

As for `COc1ccc(-c2c(-c3ccccc3)c(C)nc3nc(SC)nc(SC)c23)cc1OC`, the TGI in the assay with TK-10 renal is greater than 100 µM; in the assay on SK-MEL-5 melanoma, 27.8 µM; in the assay on HCT-15 colon, greater than 100 µM; in the assay on CCRF-CEM leukemia, 23.5 µM; with A498 renal, 56.9 µM; with NCI-H460 lung, 16.2 µM. Further, the TGI in the assay with SK-MEL-28 melanoma is greater than 100 µM; in the assay on UACC-257 melanoma it was greater than 100 µM; in the assay on UO-31 renal, greater than 100 µM; with COLO 205 colon it was 27.9 µM.

Turning to `O=C(O)/C=C/c1c[nH]c(=O)[nH]c1=O`, the TGI in the assay with SK-MEL-5 melanoma is greater than 500 µM; with HCT-15 colon it was greater than 500 µM; with CCRF-CEM leukemia, greater than 316 µM; in the assay on A498 renal it was greater than 500 µM; with NCI-H460 lung, greater than 500 µM; with SK-MEL-28 melanoma it was greater than 500 µM. Besides, the TGI in the assay with UACC-257 melanoma, with UO-31 renal and in the assay with COLO 205 colon was greater than 500 µM in each case. For the same molecule, the GI50 with A498 renal is greater than 500 µM.

As for `C=C1C(=O)OC2CC(C)C3C4OC4C(O)C3(C)C(O)C12` (centres undefined), the TGI with SK-MEL-5 melanoma came out at 87.1 µM; in the assay on HCT-15 colon it was 77.6 µM; in the assay with CCRF-CEM leukemia, 56 µM; with A498 renal it was 44.4 µM; in the assay on NCI-H460 lung, 62.9 µM; in the assay with SK-MEL-28 melanoma, 71.2 µM. Moreover, the TGI in the assay on UACC-257 melanoma came to 104 µM; in the assay with UO-31 renal, 149 µM; in the assay with COLO 205 colon, 51.6 µM.

With `C=C=CC(NC(=O)c1ccccc1)(C(=O)O)C(F)(F)F` (centres undefined), the TGI in the assay on TK-10 renal, with SK-MEL-5 melanoma, in the assay with HCT-15 colon, with CCRF-CEM leukemia, with A498 renal and in the assay on NCI-H460 lung was greater than 100 µM throughout. Moreover, the TGI in the assay with SK-MEL-28 melanoma, in the assay with UACC-257 melanoma and in the assay on COLO 205 colon was greater than 100 µM each time.

Consider `O=C1/C(=C/c2ccc(O)cc2)COc2ccc(O)c(O)c21`, for which the GI50 in the assay on TK-10 renal was 3.12 µM; with SK-MEL-5 melanoma, 1.81 µM; in the assay with HCT-15 colon it was 1.31 µM; in the assay with CCRF-CEM leukemia, 0.652 µM; in the assay with NCI-H460 lung, 2.16 µM; with SK-MEL-28 melanoma it was 3.81 µM. Also, the GI50 in the assay with UACC-257 melanoma was 4.5 µM; in the assay on UO-31 renal, 1.09 µM. Further, the TGI in the assay on TK-10 renal is greater than 100 µM; in the assay with SK-MEL-5 melanoma, 4.01 µM; in the assay on HCT-15 colon, 4.07 µM; in the assay on CCRF-CEM leukemia, 8.53 µM; with NCI-H460 lung, 4.69 µM; in the assay with SK-MEL-28 melanoma it was 64.6 µM. For the same molecule, the results for the TGI in the assay with UACC-257 melanoma and with UO-31 renal were greater than 100 µM and 2.74 µM, respectively.

`CCCCOP(C)(=O)C(NC(=O)OCC)(C(F)(F)F)C(F)(F)F` (centres undefined): the TGI in the assay on TK-10 renal, in the assay with SK-MEL-5 melanoma, in the assay with HCT-15 colon, in the assay on CCRF-CEM leukemia, in the assay on A498 renal and in the assay on NCI-H460 lung was greater than 100 µM throughout. Moreover, the TGI with SK-MEL-28 melanoma, in the assay with UACC-257 melanoma, with UO-31 renal and in the assay on COLO 205 colon was greater than 100 µM throughout.

In the case of `Cc1cccc(N2C(=O)C3c4[nH]c5ccc(C)cc5c4C4CCC(C(C)(C)C)CC4C3C2=O)c1` (centres undefined), the TGI in the assay with TK-10 renal was 59.8 µM; with SK-MEL-5 melanoma, greater than 100 µM; in the assay on HCT-15 colon, greater than 100 µM; in the assay with CCRF-CEM leukemia it was 68 µM; in the assay on NCI-H460 lung, 36.3 µM; with SK-MEL-28 melanoma it was greater than 100 µM. Moreover, the TGI in the assay with UACC-257 melanoma, in the assay on UO-31 renal and in the assay on COLO 205 colon was greater than 100 µM in each case.

`CCCCCCCCCCCCCC[n+]1ccc(C)cc1`: the GI50 was 0.627 µM in the assay on TK-10 renal; 0.548 µM in the assay on SK-MEL-5 melanoma; 4.01 µM in the assay on HCT-15 colon; 0.818 µM in the assay on CCRF-CEM leukemia; 2.93 µM with A498 renal; 0.994 µM with NCI-H460 lung. In addition, the GI50 in the assay on SK-MEL-28 melanoma was 1.44 µM; in the assay with UACC-257 melanoma, 0.763 µM; in the assay with UO-31 renal it was 1.38 µM; with COLO 205 colon, 1.22 µM. For the same molecule, the TGI was determined as 2.11 µM in the assay on TK-10 renal; 1.81 µM with SK-MEL-5 melanoma; 22.4 µM in the assay on HCT-15 colon; 5.11 µM with CCRF-CEM leukemia; 12.6 µM in the assay on A498 renal; 2.23 µM with NCI-H460 lung. The TGI was 3.09 µM in the assay with SK-MEL-28 melanoma, 2.48 µM with UACC-257 melanoma, 3.79 µM in the assay with UO-31 renal and 2.67 µM in the assay with COLO 205 colon.
